ChEMBL document CHEMBL5634130, “Exploring the structural-activity relationship of hexahydropyrazino[1,2-d]pyrido[3,2-b][1,4]oxazine derivatives as potent and orally-bioavailable PARP7 inhibitors” (Eur J Med Chem, 2023)
Blank lines part the entries; values can stand above or below the compound they belong to. Activity calls are given as the source filed them. The calls are words filed in the database; no cut-off is given here.

What was measured:
NCI-H1373 [1] = assay: Antiproliferative activity against human NCI-H1373 cells assessed as inhibition of cell viability incubated for 4 days by luminescence based assay; conditions: NCI-H1373, 96 h
[2] = target: T1, Protein mono-ADP-ribosyltransferase TIPARP (Homo sapiens, UniProt Q7Z3E1); assay: Inhibition of PARP7 (unknown origin) using histone as substrate incubated for 1 hr by chemiluminescence assay
T1 sequence (Q7Z3E1 whole entry): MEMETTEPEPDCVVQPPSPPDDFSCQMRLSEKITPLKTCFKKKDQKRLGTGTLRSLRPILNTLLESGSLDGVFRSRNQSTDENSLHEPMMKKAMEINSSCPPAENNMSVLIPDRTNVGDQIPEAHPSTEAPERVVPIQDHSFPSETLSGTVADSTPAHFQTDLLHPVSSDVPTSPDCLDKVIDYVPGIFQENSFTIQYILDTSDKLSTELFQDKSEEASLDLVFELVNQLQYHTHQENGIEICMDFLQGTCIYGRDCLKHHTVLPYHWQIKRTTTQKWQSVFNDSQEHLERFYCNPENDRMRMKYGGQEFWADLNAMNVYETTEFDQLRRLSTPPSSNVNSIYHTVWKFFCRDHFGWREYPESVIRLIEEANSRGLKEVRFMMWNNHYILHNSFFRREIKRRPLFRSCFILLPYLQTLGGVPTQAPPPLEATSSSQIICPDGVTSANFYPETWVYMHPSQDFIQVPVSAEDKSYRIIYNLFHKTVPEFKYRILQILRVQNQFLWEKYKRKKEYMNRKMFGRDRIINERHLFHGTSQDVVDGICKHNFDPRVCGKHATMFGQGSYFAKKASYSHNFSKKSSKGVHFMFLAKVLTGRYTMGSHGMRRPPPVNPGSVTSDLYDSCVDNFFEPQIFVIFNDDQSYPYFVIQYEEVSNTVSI

[3] = AUC in fasted ICR mouse at 10 mg/kg, po measured for 24 hrs by LC-MS analysis; type: ADME, organism-based; conditions: in vivo
[4] = Half life in fasted ICR mouse at 2 mg/kg, iv measured for 24 hrs by LC-MS analysis; type: ADME, organism-based; conditions: in vivo
[5] = Half life in fasted ICR mouse at 10 mg/kg, po measured for 24 hrs by LC-MS analysis; type: ADME, organism-based; conditions: in vivo
[6] = AUC in fasted ICR mouse at 2 mg/kg, iv measured for 24 hrs by LC-MS analysis; type: ADME, organism-based; conditions: in vivo
[7] = Volume of distribution at steady state in fasted ICR mouse at 2 mg/kg, iv measured for 24 hrs by LC-MS analysis; type: ADME, organism-based; conditions: in vivo, read-out: Vdss
[8] = Oral bioavailability in fasted ICR mouse at 10 mg/kg measured for 24 hrs by LC-MS analysis; type: ADME, organism-based; conditions: in vivo
[9] = Cmax in fasted ICR mouse at 10 mg/kg, po measured for 24 hrs by LC-MS analysis; type: ADME, organism-based; conditions: in vivo
[10] = Tmax in fasted ICR mouse at 10 mg/kg, po measured for 24 hrs by LC-MS analysis; type: ADME, organism-based; conditions: in vivo
[11] = Clearance in fasted ICR mouse at 2 mg/kg, iv measured for 24 hrs by LC-MS analysis; type: ADME, organism-based; conditions: in vivo
MDA-MB-436 = assay: Antiproliferative activity against human MDA-MB-436 cells assessed as inhibition of cell viability at 0.1 uM incubated for 7 days by luminescence based assay; type: functional; conditions: time 7.0 day
RAW264.7 = assay: Inhibition of PARP7 in mouse RAW264.7 cells assessed as increase in IFN-beta level incubated for 24 hrs by ELISA; type: cell-based
[12] = Toxicity in […] SCID mouse model xenografted with human NCI-H1373 cells assessed as animal death at 30 mg/kg, po measured for 21 days; type: organism-based; conditions: in vivo, 504 h, time 21 day
NCI-H1373 [13] = assay: Antitumor activity against human NCI-H1373 cells xenografted in […] SCID mouse model assessed as tumor growth inhibition at 30 mg/kg, po administered everyday measured after 21 days relative to control; type: functional; conditions: NCI-H1373, 504 h, time 21 day, read-out: TGI
[14] = Toxicity in […] SCID mouse model xenografted with human NCI-H1373 cells assessed as body weight loss at 30 mg/kg, po measured for 21 days; type: organism-based; conditions: in vivo, 504 h, time 21 day

SMILES: CC(COCCC(=O)N1CCN2c3ncc(C(F)(F)F)cc3OCC2C1)Nc1cn[nH]c(=O)c1C(F)(F)F (racemic)
- IC50 (NCI-H1373 [1]): 0.175 µM
- IC50 [2]: 0.0103 µM

SMILES: C[C@@H](CN1CC(C(=O)N2CCN3c4ncc(C(F)(F)F)cc4OC[C@@H]3C2)C1)Nc1cn[nH]c(=O)c1C(F)(F)F
- IC50 (NCI-H1373 [1]): > 3 µM

SMILES: CC(COCCC(=O)N1CCN2c3ncc(C(F)(F)F)cc3OC[C@H]2C1)Nc1cn[nH]c(=O)c1C(F)(F)F (mixture of isomers)
- IC50 (NCI-H1373 [1]): 0.18 µM
- IC50 [2]: 0.0128 µM

SMILES: O=C(CCOC1CC(Nc2cn[nH]c(=O)c2C(F)(F)F)C1)N1CCN2c3ncc(C(F)(F)F)cc3OC[C@@H]2C1 (some centres undefined)
- IC50 (NCI-H1373 [1]): 0.398 µM
- IC50 [2]: 0.063 µM

SMILES: C[C@@H](COc1cnc(N2CCN3c4ncc(C(F)(F)F)cc4OC[C@@H]3C2)nc1)Nc1cn[nH]c(=O)c1C(F)(F)F
- IC50 (NCI-H1373 [1]): 1.95 µM

SMILES: C[C@@H](COCCC(=O)N1CCN2c3ncc(C#N)cc3OCC2C1)Nc1cn[nH]c(=O)c1C(F)(F)F (some centres undefined)
- IC50 (NCI-H1373 [1]): 0.255 µM

SMILES: O=C(CCOC[C@@H]1CCCN1c1cn[nH]c(=O)c1C(F)(F)F)N1CCN2c3ncc(C(F)(F)F)cc3OC[C@@H]2C1
- IC50 (NCI-H1373 [1]): 0.31 µM
- IC50 [2]: 0.0138 µM

SMILES: Cc1cnc2c(c1)OCC1CN(C(=O)CCOC[C@H](C)Nc3cn[nH]c(=O)c3C(F)(F)F)CCN21 (some centres undefined)
- IC50 (NCI-H1373 [1]): 0.954 µM

SMILES: CC(COC[C@H](C)Nc1cn[nH]c(=O)c1C(F)(F)F)C(=O)N1CCN2c3ncc(C(F)(F)F)cc3OC[C@@H]2C1 (some centres undefined)
- IC50 (NCI-H1373 [1]): 0.973 µM

SMILES: C[C@@H](CN1CCC(C(=O)N2CCN3c4ncc(C(F)(F)F)cc4OC[C@@H]3C2)C1)Nc1cn[nH]c(=O)c1C(F)(F)F (some centres undefined)
- IC50 (NCI-H1373 [1]): 0.908 µM

SMILES: C[C@@H](COCCC(=O)N1CCN2c3ncc(C(F)(F)F)cc3OC[C@@H]2C1)Oc1cn[nH]c(=O)c1C(F)(F)F
- Activity (MDA-MB-436): inactive
- inhibition (RAW264.7): Active
- AUC [3]: 1.835 µg·h/mL
- half-life [4]: 102 min
- t1/2 [5]: 264 min
- AUC at 24 h [6]: 0.682 µg·h/mL
- Vd [7]: 0.668 L/kg
- Activity [12]: Non-Toxic
- inhibition in vivo at 30 mg/kg (NCI-H1373 [13]): 62.4%
- bioavailability [8]: 53.9%
- Activity [14]: Non-Toxic
- IC50 (NCI-H1373 [1]): 0.015 µM
- Cmax [9]: 1.84 µg/mL
- Tmax [10]: 15 min
- IC50 [2]: 0.00175 µM
- clearance [11]: 3.04 L/h/kg

SMILES: CC(COCCC(=O)N1CCN2c3ncc(C(F)(F)F)cc3OC[C@@H]2C1)Nc1cn[nH]c(=O)c1C(F)(F)F (mixture of isomers)
- IC50 (NCI-H1373 [1]): 0.156 µM
- IC50 [2]: 0.0094 µM

SMILES: C[C@@H](COCCC(=O)N1CCN2c3ncc(F)cc3OCC2C1)Nc1cn[nH]c(=O)c1C(F)(F)F (some centres undefined)
- IC50 (NCI-H1373 [1]): 0.694 µM

More lines, main results first:

- IC50 (NCI-H1373 [1]): 0.088 µM
- IC50 [2]: 0.0021 µM
SMILES: C[C@@H](COCCC(=O)N1CCN2c3ncc(C(F)(F)F)cc3OCC2C1)Nc1cn[nH]c(=O)c1C(F)(F)F (mixture of isomers)

- IC50 (NCI-H1373 [1]): 0.106 µM
SMILES: C[C@@H](COCCC(=O)N1CCN2c3ncc(Cl)cc3OCC2C1)Nc1cn[nH]c(=O)c1C(F)(F)F (some centres undefined)

- AUC [3]: 0.306 µg·h/mL
- half-life [4]: 30 min
- t1/2 [5]: 120 min
- AUC at 24 h [6]: 0.274 µg·h/mL
- Vd [7]: 0.104 L/kg
- bioavailability [8]: 22.3%
- IC50 (NCI-H1373 [1]): 0.077 µM
- Cmax [9]: 0.408 µg/mL
- Tmax [10]: 15 min
- IC50 [2]: 0.00186 µM
- clearance [11]: 3.66 L/h/kg
SMILES: C[C@@H](COCCC(=O)N1CCN2c3ncc(C(F)(F)F)cc3OC[C@@H]2C1)Nc1cn[nH]c(=O)c1C(F)(F)F

- IC50 (NCI-H1373 [1]): 0.085 µM
- IC50 [2]: 0.0033 µM
SMILES: C[C@@H](COCCC(=O)N1CCN2c3ncc(C(F)(F)F)cc3OC[C@H]2C1)Nc1cn[nH]c(=O)c1C(F)(F)F

- AUC [3]: 0.544 µg·h/mL
- half-life [4]: 36 min
- t1/2 [5]: 126 min
- AUC at 24 h [6]: 0.421 µg·h/mL
- Vd [7]: 0.638 L/kg
- bioavailability [8]: 25.8%
- IC50 (NCI-H1373 [1]): 0.0148 µM
- Cmax [9]: 0.4 µg/mL
- Tmax [10]: 15 min
- IC50 [2]: 0.00066 µM
- clearance [11]: 2.96 L/h/kg
SMILES: O=C(CCOC[C@@H]1CCN1c1cn[nH]c(=O)c1C(F)(F)F)N1CCN2c3ncc(Cl)cc3OC[C@@H]2C1
- Activity (MDA-MB-436): inactive
- inhibition (RAW264.7): Active

- IC50 (NCI-H1373 [1]): 0.006 µM
- IC50 [2]: 0.00071 µM
SMILES: O=C(CCOCC1CCN1c1cn[nH]c(=O)c1C(F)(F)F)N1CCN2c3ncc(C(F)(F)F)cc3OC[C@@H]2C1 (some centres undefined)
